Measurements: EP0731697B1, “SSI TYRPHOSTINS AND PHARMACEUTICAL COMPOSITIONS” (priority 1993, dated 1995)
Read-outs that look alike come from different tables or passages of the source.

Assays:
Her-2/neu receptor = Her-2/neu receptor (Homo sapiens, UniProt P04626); settings: even at concentrations above 100 uM; cited from earlier work
[1] = test system: Murine fibroblastic cells (A9); settings: for Protection Against TNF-α-Induced Cytotoxicity (cell viability): 1440 min
Description: Tyrphostins at different concentration were added 2 hr prior to TNF. After 24 hrs cells viability was determined by vital staining using neutral red.
Recombinant human TNFα is added to a mouse fibroblastic cell line (A9), cultured in the presence of cyclohexamine and cell viability is monitored after 20 hours. […] The percentage of live cells was measured from 2 hours prior to administration until 4 hours after administration for a control and for TNF at concentrations of 0.2 ng/ml, 0.05 ng/ml, and 1.0 ng/ml.

PDGFR = settings: even at concentrations above 100 uM; cited from earlier work
[2] = test system: murine peritoneal macrophages; experiment: NO2- production by periodate-activated murine peritoneal macrophages; type: cell-based
Description: Nitrite (NO2-) levels were determined in supernatants at the time indicated, as described herein. (Table 5) Values are expressed as means of triplicate cultures. […] Two additional experiments yielded similar results.
NO2- the product of NO oxidation is used to determine NO produced. Nitrite concentration in supernatants of macrophages was measured by a microplate assay method. 100 ul aliquots of supernatants were incubated with an equal volume of Griess reagent (1% sulfanilamide/O.1% naphthylethylene diamine dihydrochloride/2.5% H3PO4) at room temperature for 10 min. The absorbance at 550nm was determined in a microplate reader. Sodium nitrite was used as a standard.
Mice were injected i.p. with 1 ml sodium periodate (5mM). Three to 4 days later, macrophages were washed from the peritoneal cavity with PBS. After centrifugation at 170g for 10 min at […], the cell pellet was resuspended in RPMI 1640 containing 10% heat-inactivated new born calf serum. Adherent macrophage monolayers were obtained by plating the cells in 96-well plastic trays at 4x10^5 cells/well for 2 hr at 37°C in 5% CO2/air. Nonadherent cells were removed by suction and complete medium was added. […]

TNF-α [3] = experiment: LPS-induced production of TNF-α by activated murine peritoneal macrophages in vitro
Description: The amount of TNF-α was quantitated by assessing the extent of killing of the TNF-α sensitive cell line (A9) essentially as described by Ruff and Gilford, G. E. J. Immunol. […] Briefly, mouse A9 fibroblasts were plated in 96-well flat-bottom micro-titer plates at 30,000 cells /0.1 ml to establish a dense monolayer. After incubation for 24 hr at 37 C in a humidified 5% CO2 atmosphere, cycloheximide was added to a final concentration of 50 ug/ml and 100 ul of serially diluted test samples were added to the wells. After incubation for additional 18 hr the supernatants were carefully aspirated, the monolayer were washed twice with PBS and 200 ul of neutral red solution (0.02%) was added. After incubation for 2 hr, cells were washed and the dye that had been absorbed by the live cells was extracted using 200 ul of 50% ethanol. The concentration of the dye was determined by an ELISA autoreader using a 550 nm filter. Murine TNF-α ELISA kit from ENDOGEN Inc., was used for quancitation of murine TNF-α.
Mice were injected i.p. with 1 ml sodium periodate (5mM). Three to 4 days later, macrophages were washed from the peritoneal cavity with PBS. After centrifugation at 170g for 10 min at 40° C, the cell pellet was resuspended in RPMI 1640 containing 10% heat-inactivated new born calf serum. Adherent macrophage monolayers were obtained by plating the cells in 96-well plastic trays at 4x10^5 cells/well for 2 hr at 37°C in 5% CO2/air. Nonadherent cells were removed by suction and complete medium was added.

EGF receptor = EGF receptor (Homo sapiens, UniProt P00533); settings: even at concentrations above 100 uM; cited from earlier work
TNF-α [4] = experiment: LPS induced increase in serum TNF-α levels in mice; type: in vivo
Description: TNF-α was implicated to mediate many of the toxic effect of LPS. For example, the effect of SSI 3 on serum TNF-α levels in mice which had been treated with LPS was investigated. LPS induced a rapid increase in serum TNF-α levels. […] […] The bioassay gave somewhat higher levels compared to the ELISA. This finding may indicate that the serum from LPS-treated mice contained in addition to TNF-α, other cytotoxic factors.
The amount of TNF-α was quantitated by assessing the extent of killing of the TNF-α sensitive cell line (A9) essentially as described by Ruff and Gilford, G. E. J. Immunol. 125, 1671-1677, (1980). Briefly, mouse A9 fibroblasts were plated in 96-well flat-bottom micro-titer plates at 30,000 cells /0.1 ml to establish a dense monolayer. After incubation for 24 hr at 37 C in a humidified 5% CO2 atmosphere, cycloheximide was added to a final concentration of 50 ug/ml and 100 ul of serially diluted test samples were added to the wells. After incubation for additional 18 hr the supernatants were carefully aspirated, the monolayer were washed twice with PBS and 200 ul of neutral red solution (0.02%) was added. After incubation for 2 hr, cells were washed and the dye that had been absorbed by the live cells was extracted using 200 ul of 50% ethanol. The concentration of the dye was determined by an ELISA autoreader using a 550 nm filter. Murine TNF-α ELISA kit from ENDOGEN Inc., was used for quancitation of murine TNF-α.

mice = experiment: LPS-induced lethal toxicity in mice; settings: for mice alive after 7 days: 100 ug/mouse 2 hours before or after LPS
[5] = Solubility in aqueous solution; type: physicochemical
[6] = LPS 200 µg/mouse, AG 300 µg/mouse 2 hrs prior to LPS, 1hr, mean (two single values)
[7] = LPS 200 µg/mouse, AG 300 µg/mouse 2 hrs prior to LPS, 2hr, mean (two single values)
[8] = no LPS (-), AG 300 µg/mouse, 1hr

Chain of Her-2/neu receptor (P04626 23-1255): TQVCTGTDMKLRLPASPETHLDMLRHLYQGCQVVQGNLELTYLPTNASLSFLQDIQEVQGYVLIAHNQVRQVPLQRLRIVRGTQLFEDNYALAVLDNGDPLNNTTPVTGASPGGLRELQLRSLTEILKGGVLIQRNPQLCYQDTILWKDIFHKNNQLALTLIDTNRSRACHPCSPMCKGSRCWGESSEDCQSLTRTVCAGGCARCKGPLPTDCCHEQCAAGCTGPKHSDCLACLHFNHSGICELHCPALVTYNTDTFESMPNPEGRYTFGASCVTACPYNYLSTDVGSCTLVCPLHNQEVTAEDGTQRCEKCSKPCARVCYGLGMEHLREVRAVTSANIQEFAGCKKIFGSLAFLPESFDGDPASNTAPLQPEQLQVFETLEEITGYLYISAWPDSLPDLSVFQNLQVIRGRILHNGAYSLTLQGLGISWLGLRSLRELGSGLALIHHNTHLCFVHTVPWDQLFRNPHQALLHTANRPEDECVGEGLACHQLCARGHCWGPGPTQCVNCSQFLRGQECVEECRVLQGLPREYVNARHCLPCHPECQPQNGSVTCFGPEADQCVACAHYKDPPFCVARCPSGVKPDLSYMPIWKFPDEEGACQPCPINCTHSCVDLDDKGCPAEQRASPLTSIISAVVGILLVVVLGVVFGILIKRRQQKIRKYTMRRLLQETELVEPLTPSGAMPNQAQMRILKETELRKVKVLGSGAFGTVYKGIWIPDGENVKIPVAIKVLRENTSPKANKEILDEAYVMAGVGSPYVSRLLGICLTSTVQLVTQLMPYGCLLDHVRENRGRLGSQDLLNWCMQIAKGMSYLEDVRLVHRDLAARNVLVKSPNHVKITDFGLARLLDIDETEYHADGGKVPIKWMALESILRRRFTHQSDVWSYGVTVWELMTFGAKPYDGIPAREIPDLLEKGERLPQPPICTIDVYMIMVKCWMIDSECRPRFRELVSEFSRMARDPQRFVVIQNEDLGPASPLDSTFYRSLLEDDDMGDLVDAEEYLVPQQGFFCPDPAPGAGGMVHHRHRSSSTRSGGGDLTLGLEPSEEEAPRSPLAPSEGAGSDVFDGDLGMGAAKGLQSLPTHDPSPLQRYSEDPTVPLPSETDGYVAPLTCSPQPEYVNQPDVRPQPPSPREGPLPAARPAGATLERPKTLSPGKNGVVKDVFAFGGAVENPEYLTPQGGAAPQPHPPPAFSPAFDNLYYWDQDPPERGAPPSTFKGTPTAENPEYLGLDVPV
Chain of EGF receptor (P00533 25-1210): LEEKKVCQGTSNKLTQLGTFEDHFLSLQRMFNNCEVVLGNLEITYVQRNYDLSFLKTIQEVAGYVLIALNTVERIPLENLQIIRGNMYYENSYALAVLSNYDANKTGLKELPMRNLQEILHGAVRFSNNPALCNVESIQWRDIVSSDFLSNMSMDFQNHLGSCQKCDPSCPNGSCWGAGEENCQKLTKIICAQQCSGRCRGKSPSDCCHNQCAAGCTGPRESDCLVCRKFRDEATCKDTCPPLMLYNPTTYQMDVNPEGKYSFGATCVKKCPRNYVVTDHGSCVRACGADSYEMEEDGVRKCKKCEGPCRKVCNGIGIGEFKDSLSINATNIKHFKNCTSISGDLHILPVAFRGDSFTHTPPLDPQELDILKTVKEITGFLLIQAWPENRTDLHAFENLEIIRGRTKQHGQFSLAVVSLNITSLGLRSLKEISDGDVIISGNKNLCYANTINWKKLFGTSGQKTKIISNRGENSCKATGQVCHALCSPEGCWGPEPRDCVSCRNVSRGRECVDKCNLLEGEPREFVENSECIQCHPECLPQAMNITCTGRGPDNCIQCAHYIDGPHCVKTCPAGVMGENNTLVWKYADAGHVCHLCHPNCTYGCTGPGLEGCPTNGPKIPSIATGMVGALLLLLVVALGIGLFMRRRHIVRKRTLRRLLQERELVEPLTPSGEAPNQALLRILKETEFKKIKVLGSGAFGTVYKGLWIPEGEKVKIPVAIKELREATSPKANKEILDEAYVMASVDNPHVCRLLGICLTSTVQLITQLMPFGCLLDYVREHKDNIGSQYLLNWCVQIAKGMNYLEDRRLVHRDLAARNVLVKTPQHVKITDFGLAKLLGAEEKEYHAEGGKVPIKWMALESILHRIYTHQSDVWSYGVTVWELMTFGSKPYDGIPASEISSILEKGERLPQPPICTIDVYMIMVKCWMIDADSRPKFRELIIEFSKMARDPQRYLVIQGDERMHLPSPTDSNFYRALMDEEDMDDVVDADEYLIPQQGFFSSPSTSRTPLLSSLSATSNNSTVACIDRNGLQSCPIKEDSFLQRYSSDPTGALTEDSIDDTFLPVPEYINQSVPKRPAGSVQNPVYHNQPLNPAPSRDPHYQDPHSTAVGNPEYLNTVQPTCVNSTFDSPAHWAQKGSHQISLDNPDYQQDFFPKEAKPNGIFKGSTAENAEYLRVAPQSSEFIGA

SMILES	blocking TNF-α induced cytotoxicity in vitro [1]	Protection Against TNF-α-Induced Cytotoxicity (cell viability) ([1]; TNF-α 0 ng/ml)	Protection Against TNF-α-Induced Cytotoxicity (cell viability) ([1]; TNF-α 0.2 ng/ml, none 41±2.3)	Protection Against TNF-α-Induced Cytotoxicity (cell viability) ([1]; TNF-α 0.5 ng/ml, none 20±1.7)	NO2- Production by Macrophages ([2]; SSI 20 uM, LPS 10 ug, 1 DAY)	NO2- Production by Macrophages ([2]; SSI 20 uM, LPS 10 ug, 2 DAY)	NO2- Production by Macrophages ([2]; SSI 20 uM, LPS 10 ug, 3 DAY)	NO2- Production by Macrophages ([2]; SSI 20 uM, no LPS, 1 DAY)	NO2- Production by Macrophages ([2]; SSI 20 uM, no LPS, 2 DAY)	NO2- Production by Macrophages ([2]; SSI 20 uM, no LPS, 3 DAY)	NO2- Production by Macrophages ([2]; SSI 50 uM, no LPS, 1 DAY)	NO2- Production by Macrophages ([2]; SSI 50 uM, no LPS, 2 DAY)	NO2- Production by Macrophages ([2]; SSI 50 uM, no LPS, 3 DAY)	TNF-α (TNF-α [3]; LPS +) [pg/mL]	TNF-α (TNF-α [3]; LPS -) [pg/mL]	Serum TNF-α (TNF-α [4]; [6])	Serum TNF-α (TNF-α [4]; [7])	Serum TNF-α (TNF-α [4]; [8]) [ng/mL]	other results
N#CC(C#N)=Cc1cc(O)c(O)c([N+](=O)[O-])c1 [SSI 8]	active	100	67±4.1	46+2.8	42,7 µg	80,6 µg	83,4 µg	10,4 µg	13,5 µg	11,8 µg	5,8 µg	8,1 µg	5,9 µg	<5	<5				effect on Her-2/neu receptor (Her-2/neu receptor): no effect; effect on PDGFR (PDGFR): no effect; NO2- production in unstimulated and LPS-stimulated periodate-activated murine macrophages ([2]; LPS (10 mg/ml)): effectively inhibited; NO2- Production by Macrophages ([2]; SSI 50uM, LPS 10 ug, 1 DAY): 6,4 µg; NO2- Production by Macrophages ([2]; SSI 50uM, LPS 10 ug, 2 DAY): 11,5 µg; NO2- Production by Macrophages ([2]; SSI 50uM, LPS 10 ug, 3 DAY): 22,4 µg; ability to inhibit LPS-induced production of TNF-α by activated murine peritoneal macrophages in vitro (TNF-α [3]; among the tyrphostins tested): most potent; effect on EGF receptor (EGF receptor): no effect
N#CC(=Cc1cc(O)c(O)c([N+](=O)[O-])c1)C(=O)O [SSI 9]	not				71,3 µg	112,9 µg	136 µg	41,8 µg	57,2 µg	45,1 µg	36 µg	51 µg	33 µg	17	<5	17.7 (17.3, 18.2) ng/ml	11.1 (10.5, 11.7) ng/ml	16.0	
N#CC(=Cc1cc(O)c(O)c([N+](=O)[O-])c1)C(=O)NCCCc1ccccc1 [SSI 10]					42,3 µg	100,9 µg	124,9 µg	23,4 µg	27,9 µg	44,6 µg	23,3 µg	12,3 µg	13,2 µg			18.7 (23.2, 19.2) ng/ml	12.9 (13.6, 12.2) ng/ml	14.0	
N#CC(=Cc1ccc(O)c(O)c1)C(=O)NCc1ccccc1 [SSI 16]		100	41±4.3	23±2.0															LPS induced toxicity in vivo (mice; 400 ug/mouse over 7 days with 10 mice): does not prevent; more active in inhibiting TNF-α cytotoxicity in vitro [1]: two to three fold; TNF toxicity (percentage of live cells) ([1]; SSI 3 50 uM, SSI 16 2 uM, SSI 17 2 and 10 uM, A9 cells with cyclohexamine, viability after 20 hours, TNF 0.2, 0.05 and 1.0 ng/ml): prevent TNF toxicity to different degrees; LPS induced NO production ([2]; 50 um, added 2 hours prior to LPS, 24 hours): markedly inhibit; NO production ([2]; 50 um, from an initial level of 70 uM (no LPS), 24 hours): ~30 µM; NO production ([2]; 50 um, from an initial level of 40 (10 ug/ml of LPS), 24 hours): approximately 20 uM
N#CC(=Cc1ccc([N+](=O)[O-])c(O)c1)C(=O)NCCCc1ccccc1 [SSI 19]		100	42±3.7	18±2.6															preventing TNF toxicity ([1]; 2 and 10 uM): effective; toxicity to the indicator A9 cells ([1]; 50 um, by itself): toxic
N#CC(=Cc1ccc([N+](=O)[O-])c(O)c1)C(=O)NCCCCc1ccccc1 [SSI 23]																			behaviour after dilution of the stock (made in DMSO) in PBS [5]: rapidly precipitates; solubility in aqueous solution [5]: very soluble; mice alive after 7 days (mice; 2.2 mg LPS/mouse, LPS alone 1 alive): 4 out of 5 mice; mice alive after 7 days (mice; 2.5 mg LPS/mouse, LPS alone 0 alive after 1 day): 2 out of 5 mice; induced lethality (mice; even when administered late after LPS): prevent; preventing TNF toxicity in vitro ([1]; 50um, added at the same time, 1 hour prior to, or late (2hr) after the addition of TNF): effective
